Test results: patent US20060045953A1 (priority 2004, published 2006)
Read-outs that look alike come from different tables or passages of the source. Blank lines part the entries; values can stand above or below the molecule they belong to.

How the values were obtained:
[1] = target: T1, hT1R2/hT1R3 sweet receptor (Homo sapiens, UniProt Q7RTX0+Q8TE23); assay: In vitro hT1R2/hT1R3 sweet taste receptor activation assay (FLIPR, dose response); format: cell-based
T1 construct: expressed in transfected cells; host or cells: HEK293 derivative stably expressing Gα15, clone S-9
T1 sequence (Q8TE23 20-839): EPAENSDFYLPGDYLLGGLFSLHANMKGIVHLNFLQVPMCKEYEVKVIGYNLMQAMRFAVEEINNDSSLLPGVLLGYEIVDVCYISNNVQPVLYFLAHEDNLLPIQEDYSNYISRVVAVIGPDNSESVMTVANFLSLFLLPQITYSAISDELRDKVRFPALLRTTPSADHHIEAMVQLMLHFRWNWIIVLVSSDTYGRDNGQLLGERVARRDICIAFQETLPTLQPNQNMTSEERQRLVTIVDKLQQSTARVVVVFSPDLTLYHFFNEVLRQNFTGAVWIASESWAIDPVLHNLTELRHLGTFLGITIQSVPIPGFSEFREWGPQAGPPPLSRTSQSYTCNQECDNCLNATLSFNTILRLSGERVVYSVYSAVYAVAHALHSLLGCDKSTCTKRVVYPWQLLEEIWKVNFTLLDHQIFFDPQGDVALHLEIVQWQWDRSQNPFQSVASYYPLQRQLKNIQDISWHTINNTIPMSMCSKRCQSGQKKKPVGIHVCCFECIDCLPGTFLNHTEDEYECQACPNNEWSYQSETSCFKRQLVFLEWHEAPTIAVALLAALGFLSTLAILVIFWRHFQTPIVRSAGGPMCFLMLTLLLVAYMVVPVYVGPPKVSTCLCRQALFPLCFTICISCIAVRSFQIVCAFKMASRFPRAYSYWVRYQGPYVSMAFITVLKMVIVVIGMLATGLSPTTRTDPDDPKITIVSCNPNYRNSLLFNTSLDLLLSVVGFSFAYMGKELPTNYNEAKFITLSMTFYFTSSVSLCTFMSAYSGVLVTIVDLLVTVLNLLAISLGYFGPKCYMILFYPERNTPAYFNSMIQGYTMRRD
T1 sequence (Q7RTX0 21-852): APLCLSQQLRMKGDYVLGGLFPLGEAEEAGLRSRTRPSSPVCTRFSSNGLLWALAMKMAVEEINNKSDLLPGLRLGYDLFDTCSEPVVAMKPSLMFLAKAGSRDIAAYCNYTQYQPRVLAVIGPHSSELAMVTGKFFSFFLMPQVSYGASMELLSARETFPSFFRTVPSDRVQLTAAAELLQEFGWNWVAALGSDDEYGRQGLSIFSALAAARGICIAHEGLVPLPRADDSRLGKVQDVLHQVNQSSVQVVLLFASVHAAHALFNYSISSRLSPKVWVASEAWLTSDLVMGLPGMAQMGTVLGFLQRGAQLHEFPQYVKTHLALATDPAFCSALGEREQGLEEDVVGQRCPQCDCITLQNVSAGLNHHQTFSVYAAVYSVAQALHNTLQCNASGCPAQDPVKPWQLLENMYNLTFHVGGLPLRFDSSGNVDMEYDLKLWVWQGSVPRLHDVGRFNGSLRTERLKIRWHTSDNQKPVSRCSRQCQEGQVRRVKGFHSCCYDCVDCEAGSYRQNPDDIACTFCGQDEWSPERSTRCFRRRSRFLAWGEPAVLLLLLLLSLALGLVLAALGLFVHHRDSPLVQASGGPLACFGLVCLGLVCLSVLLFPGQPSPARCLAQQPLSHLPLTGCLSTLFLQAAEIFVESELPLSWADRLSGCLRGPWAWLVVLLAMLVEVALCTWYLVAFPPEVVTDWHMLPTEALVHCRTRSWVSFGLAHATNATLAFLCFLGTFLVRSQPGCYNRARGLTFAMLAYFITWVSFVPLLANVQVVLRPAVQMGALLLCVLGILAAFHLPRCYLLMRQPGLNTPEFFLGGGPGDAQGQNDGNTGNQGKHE
How it was run: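 Dose-response at 10 concentrations (60 nM–30 µM, duplicates) measured as Fluo-3AM calcium fluorescence on FLIPR in hT1R2/hT1R3 S-9 cells, in D-PBS at room temperature. Responses scaled to 400 mM D-fructose. EC50s from regression with all curve parameters floating.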

human subjects = assay: "Difference from Reference" human taste test (sweetness); format: in vivo
Description: To determine how the intensity of a test sample of an experimental compound differs from that of a reference sample in terms of sweetness. This type of study requires a larger panel (typically 15-20 Subjects) in order to obtain statistically significant data.
Subjects rate the difference in intensity of the test sample compared to the reference sample for the key attribute on a scale of −5 (much less sweet than the reference) to +5 (much more sweet than the reference). A score of 0 indicates the test sample is equally as sweet as the reference.
Ten or more Subjects are used for the “Difference from Reference” tests. Subjects have been previously familiarized with the key attribute taste and are trained to use the −5 to +5 scale. Subjects refrain from eating or drinking (except water) for at least 1 hour prior to the test. Subjects eat a cracker and rinse with water four times to clean the mouth.
Test solutions can include the experimental compound in water, the experimental compound plus a key tastant (e.g., 4% sucrose, 6% sucrose, 6% fructose, 6% fructose/glucose, or 7% fructose/glucose, at pH 7.1 or 2.8), and a range of key tastant only solutions as references.
Samples of the key tastant without the experimental compound are used to determine if the panel is rating accurately; i.e., the reference is tested against itself (blind) to determine how accurate the panel is rating on a given test day. The solutions are dispensed in 10 ml volumes into 1 oz. sample cups and served to the Subjects at room temperature.
Subjects first taste the reference sample then immediately taste the test sample and rate the difference in intensity of the key attribute on the Difference from Reference scale (−5 to +5). All samples are expectorated. Subjects may retaste the samples but can only use the volume of sample given. Subjects must rinse at least twice with water between pairs of samples. Eating a cracker between sample pairs may be required depending on the samples tasted.
The scores for each test are averaged across Subjects and standard error is calculated. Panel accuracy can be determined using the score from the blind reference test. ANOVA and multiple comparison tests (such as Tukey's Honestly Significant Difference test) can be used to determine differences among pairs, provided the reference sample is the same among all tests. If the identical test pair is tested in another session, a Student's t-test (paired, two-tailed; alpha=0.05) can be used to determine if there is any difference in the ratings between sessions.
A number of different reference sweeteners have been utilized for the measurement of sweet taste enhancement. […]

[2] = target: T2, hT1R1/hT1R3 umami receptor (Homo sapiens, UniProt Q7RTX0+Q7RTX1); assay: Umami taste enhancement assay: shift of the MSG EC50 (EC50 ratio vs. MSG); format: cell-based; details: Table E
T2 construct: expressed in transfected cells; host or cells: HEK293 derivative stably expressing Gα15, clone I-17, expression induced with mifepristone
T2 sequence (Q7RTX1 21-841): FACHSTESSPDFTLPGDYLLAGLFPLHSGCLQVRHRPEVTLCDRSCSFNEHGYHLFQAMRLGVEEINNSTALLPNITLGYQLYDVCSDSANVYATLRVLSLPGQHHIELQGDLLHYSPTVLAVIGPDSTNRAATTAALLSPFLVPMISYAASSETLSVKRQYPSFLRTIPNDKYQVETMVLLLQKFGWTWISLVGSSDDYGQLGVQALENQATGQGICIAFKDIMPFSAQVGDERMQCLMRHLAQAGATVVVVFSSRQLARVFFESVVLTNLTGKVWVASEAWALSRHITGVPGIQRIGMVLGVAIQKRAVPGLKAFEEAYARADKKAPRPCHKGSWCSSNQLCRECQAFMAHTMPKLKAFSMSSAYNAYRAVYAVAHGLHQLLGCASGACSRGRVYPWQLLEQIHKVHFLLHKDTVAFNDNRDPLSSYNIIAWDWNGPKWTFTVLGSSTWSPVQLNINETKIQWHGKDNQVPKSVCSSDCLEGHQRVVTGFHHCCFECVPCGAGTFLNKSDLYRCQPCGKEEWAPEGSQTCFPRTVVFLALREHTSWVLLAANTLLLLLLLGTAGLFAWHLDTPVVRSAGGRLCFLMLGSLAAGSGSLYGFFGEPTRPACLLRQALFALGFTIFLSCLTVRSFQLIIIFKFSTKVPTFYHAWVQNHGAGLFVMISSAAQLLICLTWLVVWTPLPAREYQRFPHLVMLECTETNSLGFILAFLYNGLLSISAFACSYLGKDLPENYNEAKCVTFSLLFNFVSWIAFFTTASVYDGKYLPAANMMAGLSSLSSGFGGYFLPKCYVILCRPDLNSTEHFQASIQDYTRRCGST
T2 sequence (Q7RTX0 21-852): T1 sequence (Q7RTX0 21-852)
Method: A series of measurements of the dose response is run in solutions comprising MSG alone, then a second dose response is run with MSG in combination with predetermined amounts of a candidate compound of Formula (I) at the same time.
Typical compound concentrations tested were 30 μM, 10 μM, 3 μM, 1 μM, 0.3 μM, 0.1 μM and 0.03 μM. The relative efficacy of compounds of Formula (I) at enhancing the receptor was determined by calculating the magnitude of a shift in the EC50 for monosodium glutamate. Enhancement was defined as a ratio (EC50R) corresponding to the EC50 of monosodium glutamate, determined in the absence of the test compound, divided by the EC50 of monosodium glutamate, determined in the presence of the test compound.
Stated alternatively, “EC50 ratio” as compared to MSG is calculated based on the following definitions: EC50 Ratio vs. MSG=EC50 (MSG)/EC50 (MSG+[Compound]) • wherein “[compound]” refers to the concentration of the compound of Formula (I) used to elicit (or enhance or potentiate) the MSG dose response.

[3] = read-out: EC50 for activation of a hT1R2/hT1R3 sweet receptor expressed in an HEK293 cell line

EC50 [1, 3]: 5800 nM
Compound: Cc1nocc1C(=O)N[C@@H]1CCCc2ccccc21 [Example 175, 3-Methyl-isoxazole-4-carboxylic acid (1,2,3,4-tetrahydro-naphthalen-1-yl)-amide]
Perceived Equivalent Sweet Solution (human subjects; 50 μM compound + 4% sucrose, pH not measured or controlled): 6% sucrose

EC50 [1, 3]: 520 nM
melting point: 124 to 125 °C
Compound: Cc1cc(C)c2c(c1)[C@H](NC(=O)c1conc1C)CCC2 [Example 176, (R)—N—(5,7-Dimethyl-1,2,3,4-tetrahydronaphthalen-1-yl)-3-methylisoxazole-4-carboxamide]
Perceived Equivalent Sweet Solution (human subjects; 10 μM compound + 7% fructose/glucose, pH 2.8): Equal to 10.5% fructose/glucose
Perceived Equivalent Sweet Solution (human subjects; 10 μM compound + 7% fructose/glucose, pH 7.1): Equal to 10% fructose/glucose

EC50 [1, 3]: 180 nM
melting point: 175 to 176 °C
Compound: COc1cccc2c1CCC[C@H]2NC(=O)c1cccc(Cl)c1O [Example 177, (R)-3-Chloro-2-hydroxy-N-(5-methoxy-1,2,3,4-tetrahydronaphthalen-1-yl) benzamide]
Perceived Equivalent Sweet Solution (human subjects; 3 μM compound + 6% fructose/glucose, pH 7.1): Equal to 10% fructose/glucose

Umami EC50 ratio [2]: 2.81 (10 M cpd)
EC50 ([1]; Table E, Sweet Enhancer Amides, read-out: Sweet EC50): 950 nM
Compound: O=C(N[C@@H]1CCc2ccccc21)c1cccc(Cl)c1O [Example E127, (R)-3-chloro-N-(2,3-dihydro-1H-inden-1-yl)-2-hydroxybenzamide]
